Consider 2 compounds from paper PMC5070805 (Journal of medicinal chemistry, 2015).

Where a SMILES comes first, the peptide text is derived from it. Bridges are numbered along the chain shown (N, C = ends). [ ]: non-standard residue; d: D form. Nle = CCCC[C@H](N)C(=O)O

The target in experiment [1] is T1, hMC1R (Homo sapiens, UniProt Q01726). Briefly: Competition binding vs 125I-[Nle4,DPhe7]-α-MSH on whole HEK293 cells. To be noted: text description.
Experiment [2] deals with T2, hMC5R (Homo sapiens, UniProt P33032). Described as above. To be noted: text description.
The target in experiment [3] is T2, hMC5R. Put plainly: Adenylate cyclase assay. The class given is cell-based. Particulars: cAMP, text description.
The target in experiment [4] is T3, hMC4R (Homo sapiens, UniProt P32245). Put plainly: Adenylate cyclase assay. To be noted: cAMP, text description. It counts as cell-based.
For experiment [5], the target named is T4, hMC3R (Homo sapiens, UniProt P41968). Briefly: Adenylate cyclase assay. The class given is cell-based. To be noted: cAMP, text description.
Experiment [6] deals with T1, hMC1R. Put plainly: Adenylate cyclase assay. Particulars: cAMP, text description. The class given is cell-based.
Experiment [7] deals with T4, hMC3R. Put plainly: Competition binding vs 125I-[Nle4,DPhe7]-α-MSH on whole HEK293 cells. Particulars: text description.
Experiment [8] deals with T3, hMC4R. The experiment is described as above. Particulars: text description.

T2 sequence (P33032 whole entry): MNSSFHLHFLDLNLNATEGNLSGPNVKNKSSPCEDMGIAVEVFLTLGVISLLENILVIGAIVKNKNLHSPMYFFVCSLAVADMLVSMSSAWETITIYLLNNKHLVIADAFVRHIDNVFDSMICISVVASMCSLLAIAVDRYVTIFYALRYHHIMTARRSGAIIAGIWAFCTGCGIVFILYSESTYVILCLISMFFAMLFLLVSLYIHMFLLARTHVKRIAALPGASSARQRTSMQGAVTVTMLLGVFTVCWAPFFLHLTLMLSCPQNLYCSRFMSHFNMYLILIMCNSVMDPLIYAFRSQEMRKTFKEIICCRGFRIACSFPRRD
T3 sequence (P32245 whole entry): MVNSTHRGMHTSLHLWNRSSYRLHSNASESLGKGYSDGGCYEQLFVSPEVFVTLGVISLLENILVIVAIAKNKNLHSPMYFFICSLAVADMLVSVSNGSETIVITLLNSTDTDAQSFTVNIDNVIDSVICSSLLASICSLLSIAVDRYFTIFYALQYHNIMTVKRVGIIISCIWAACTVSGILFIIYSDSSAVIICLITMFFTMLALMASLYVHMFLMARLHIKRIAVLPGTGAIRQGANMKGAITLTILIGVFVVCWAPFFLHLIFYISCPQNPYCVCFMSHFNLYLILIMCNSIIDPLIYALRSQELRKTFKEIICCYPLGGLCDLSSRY
T4 sequence (P41968 whole entry): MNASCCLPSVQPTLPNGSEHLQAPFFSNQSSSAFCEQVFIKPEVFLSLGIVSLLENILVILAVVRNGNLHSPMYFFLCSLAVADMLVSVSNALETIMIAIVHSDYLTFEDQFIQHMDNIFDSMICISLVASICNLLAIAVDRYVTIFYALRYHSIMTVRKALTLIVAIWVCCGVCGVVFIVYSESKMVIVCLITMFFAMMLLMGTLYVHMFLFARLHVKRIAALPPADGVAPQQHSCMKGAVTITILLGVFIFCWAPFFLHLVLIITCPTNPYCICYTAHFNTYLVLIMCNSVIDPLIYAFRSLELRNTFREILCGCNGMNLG
T1 sequence (Q01726 whole entry): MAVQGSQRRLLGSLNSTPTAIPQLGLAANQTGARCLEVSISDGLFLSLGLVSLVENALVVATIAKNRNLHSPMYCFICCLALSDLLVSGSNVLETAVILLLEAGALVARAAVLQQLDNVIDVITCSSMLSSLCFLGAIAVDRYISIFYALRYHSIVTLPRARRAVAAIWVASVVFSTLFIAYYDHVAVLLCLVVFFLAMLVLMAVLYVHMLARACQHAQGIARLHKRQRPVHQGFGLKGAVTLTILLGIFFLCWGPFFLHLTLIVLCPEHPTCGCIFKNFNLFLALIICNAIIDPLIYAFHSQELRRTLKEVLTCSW

`CCCC[C@H](NC(C)=O)C(=O)N[C@H]1CC(=O)NCCCC[C@@H](C(N)=O)NC(=O)[C@H](Cc2c[nH]c3ccccc23)NC(=O)[C@H](CCCNC(=N)N)NC(=O)[C@@H](Cc2ccccc2)NC(=O)[C@@H]2CCCN2C(=O)[C@@H]2CCCN2C1=O` [compound 1, Ac-Nle-c[D-P-P-DPhe-R-W-K]-NH2] (Ac-[Nle]DPP[dF]RWK-NH2; lactam 2-8): the “binding at hMC1R (in words)” value on hMC1R [1] was “no appreciable binding”. For the same compound, the “binding at hMC5R (in words)” value on hMC5R [2] is “no appreciable binding”. For the same compound, the “functional activity at hMC5R (in words)” value on hMC5R [3] is recorded as “undetectable activity”. For the same compound, the “functional activity at hMC4R (in words)” value on hMC4R [4] is recorded as “undetectable activity”. The “functional activity at hMC3R (in words)” value at hMC3R [5] is “undetectable activity”. For the same compound, the “functional activity at hMC1R (in words)” value on hMC1R [6] is “low potency”. The “binding at hMC3R (in words)” value on hMC3R [7] is listed as “low binding affinity”. In addition, the “binding at hMC4R (in words)” value at hMC4R [8] was “low binding affinity”.
As for `CCCC[C@H](NC(C)=O)C(=O)N[C@H]1CC(=O)NCCCC[C@@H](C(N)=O)NC(=O)[C@H](Cc2c[nH]c3ccccc23)NC(=O)[C@H](CCCNC(=N)N)NC(=O)[C@@H](Cc2ccccc2)NC(=O)[C@@H]2CCCN2C(=O)[C@H](Cc2c[nH]c3ccccc23)NC1=O` [compound 3, Ac-Nle-c[D-W-P-DPhe-R-W-K]-NH2], the “binding at hMC1R (in words)” value on hMC1R [1] is reported as “no affinity”. The “binding at hMC5R (in words)” value at hMC5R [2] is “no affinity”. The “functional activity at hMC5R (in words)” value on hMC5R [3] was “weak and moderate activation”. Besides, the “functional activity at hMC4R (in words)” value on hMC4R [4] was “weak and moderate activation”. The “functional activity at hMC3R (in words)” value at hMC3R [5] is recorded as “no stimulation of cAMP accumulation”. The “functional activity at hMC1R (in words)” value on hMC1R [6] was “weak and moderate activation”. Also, the “binding at hMC3R (in words)” value at hMC3R [7] was “weak binding”. Besides, the “binding at hMC4R (in words)” value at hMC4R [8] is recorded as “no affinity”.
